From patent US20230085307A1, “PYRIDAZINONE COMPOUND AND HERBICIDE” (NISSAN CHEMICAL CORPORATION, priority 2019, published 2023)

What was measured:
barnyard grass [1] = test: Test Example 3: herbicidal effect by foliage application, Wagner pot (Table 18, symbol H); format: in vivo, barnyard grass (Echinochloa crus-galli); conditions: amount of applied herbicide 320 g/ha
Outline: (§1)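 Plants were sown in alluvial soil held under 0.1–0.5 cm standing water and grown 14 days in a greenhouse at 25–30 °C. An emulsifiable formulation, water-diluted to the set dose, was then sprayed onto the foliage, and effects were scored three weeks later using previously defined criteria.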

Chinese sprangletop = test: Test Example 3: herbicidal effect by foliage application, Wagner pot (Table 18, symbol D); format: in vivo, chinese sprangletop (Leptochloa chinensis); conditions: amount of applied herbicide 320 g/ha
Outline: as §1

rice flat sedge = test: Test Example 3: herbicidal effect by foliage application, Wagner pot (Table 18, symbol E); format: in vivo, rice flat sedge (Cyperus iria); conditions: amount of applied herbicide 320 g/ha
Outline: as §1

southern crabgrass [2] = test: Test Example 4: herbicidal effect by soil treatment (Table 19, symbol F); format: in vivo, southern crabgrass (Digitaria ciliaris); conditions: amount of applied herbicide 320 g/ha
Outline: (§2)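 Step 1: sow seeds in sterilized diluvial soil, cover ~1.5 cm. Step 2: spray diluted emulsion onto soil surface at predetermined rate. Step 3: greenhouse, 25–30° C, three weeks. Step 4: grade effect on each plant by earlier criteria.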

green foxtail [3] = test: Test Example 4: herbicidal effect by soil treatment (Table 19, symbol G); format: in vivo, green foxtail (Setaria viridis); conditions: amount of applied herbicide 320 g/ha
Outline: as §2

barnyard grass [4] = test: Test Example 4: herbicidal effect by soil treatment (Table 19, symbol H); format: in vivo, barnyard grass (Echinochloa crus-galli); conditions: amount of applied herbicide 320 g/ha
Outline: as §2

wild oat [5] = test: Test Example 4: herbicidal effect by soil treatment (Table 19, symbol I); format: in vivo, wild oat (Avena fatua); conditions: amount of applied herbicide 320 g/ha
Outline: as §2

blackgrass [6] = test: Test Example 4: herbicidal effect by soil treatment (Table 19, symbol J); format: in vivo, blackgrass (Alopecurus myosuroides); conditions: amount of applied herbicide 320 g/ha
Outline: as §2

Italian ryegrass [7] = test: Test Example 4: herbicidal effect by soil treatment (Table 19, symbol K); format: in vivo, Italian ryegrass (Lolium multiflorum); conditions: amount of applied herbicide 320 g/ha
Outline: as §2

windgrass [8] = test: Test Example 4: herbicidal effect by soil treatment (Table 19, symbol L); format: in vivo, windgrass (Apera spica-venti); conditions: amount of applied herbicide 320 g/ha
Outline: as §2

velvetleaf [9] = test: Test Example 4: herbicidal effect by soil treatment (Table 19, symbol M); format: in vivo, velvetleaf (Abutilon theophrasti); conditions: amount of applied herbicide 320 g/ha
Outline: as §2

redroot pigweed [10] = test: Test Example 4: herbicidal effect by soil treatment (Table 19, symbol N); format: in vivo, redroot pigweed (Amaranthus retroflexus); conditions: amount of applied herbicide 320 g/ha
Outline: as §2

lambsquarters [11] = test: Test Example 4: herbicidal effect by soil treatment (Table 19, symbol O); format: in vivo, lambsquarters (Chenopodium album); conditions: amount of applied herbicide 320 g/ha
Outline: as §2

chickweed [12] = test: Test Example 4: herbicidal effect by soil treatment (Table 19, symbol P); format: in vivo, common chickweed (Stellaria media); conditions: amount of applied herbicide 320 g/ha
Outline: as §2

persian speedwell [13] = test: Test Example 4: herbicidal effect by soil treatment (Table 19, symbol R); format: in vivo, Persian speedwell (Veronica persica); conditions: amount of applied herbicide 320 g/ha
Outline: as §2

southern crabgrass [14] = test: Test Example 5: herbicidal effect by foliage application, plastic box (Table 20, symbol F); format: in vivo, southern crabgrass (Digitaria ciliaris); conditions: foliage application, AAH 320 g/ha, evaluated three weeks after application
Outline: (§3)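 Foliar spray test: emulsion formulation diluted in water to a set application rate, sprayed onto 14-day-old plants raised in diluvial soil at 25° C to 30° C under glass. Both herbicidal effect and crop effect rated visually three weeks later.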

green foxtail [15] = test: Test Example 5: herbicidal effect by foliage application, plastic box (Table 20, symbol G); format: in vivo, green foxtail (Setaria viridis); conditions: foliage application, AAH 320 g/ha, evaluated three weeks after application
Outline: as §3

barnyard grass [16] = test: Test Example 5: herbicidal effect by foliage application, plastic box (Table 20, symbol H); format: in vivo, barnyard grass (Echinochloa crus-galli); conditions: foliage application, AAH 320 g/ha, evaluated three weeks after application
Outline: as §3

wild oat [17] = test: Test Example 5: herbicidal effect by foliage application, plastic box (Table 20, symbol I); format: in vivo, wild oat (Avena fatua); conditions: foliage application, AAH 320 g/ha, evaluated three weeks after application
Outline: as §3

blackgrass [18] = test: Test Example 5: herbicidal effect by foliage application, plastic box (Table 20, symbol J); format: in vivo, blackgrass (Alopecurus myosuroides); conditions: foliage application, AAH 320 g/ha, evaluated three weeks after application
Outline: as §3

Italian ryegrass [19] = test: Test Example 5: herbicidal effect by foliage application, plastic box (Table 20, symbol K); format: in vivo, Italian ryegrass (Lolium multiflorum); conditions: foliage application, AAH 320 g/ha, evaluated three weeks after application
Outline: as §3

windgrass [20] = test: Test Example 5: herbicidal effect by foliage application, plastic box (Table 20, symbol L); format: in vivo, windgrass (Apera spica-venti); conditions: foliage application, AAH 320 g/ha, evaluated three weeks after application
Outline: as §3

velvetleaf [21] = test: Test Example 5: herbicidal effect by foliage application, plastic box (Table 20, symbol M); format: in vivo, velvetleaf (Abutilon theophrasti); conditions: foliage application, AAH 320 g/ha, evaluated three weeks after application
Outline: as §3

redroot pigweed [22] = test: Test Example 5: herbicidal effect by foliage application, plastic box (Table 20, symbol N); format: in vivo, redroot pigweed (Amaranthus retroflexus); conditions: foliage application, AAH 320 g/ha, evaluated three weeks after application
Outline: as §3

lambsquarters [23] = test: Test Example 5: herbicidal effect by foliage application, plastic box (Table 20, symbol O); format: in vivo, lambsquarters (Chenopodium album); conditions: foliage application, AAH 320 g/ha, evaluated three weeks after application
Outline: as §3

chickweed [24] = test: Test Example 5: herbicidal effect by foliage application, plastic box (Table 20, symbol P); format: in vivo, common chickweed (Stellaria media); conditions: foliage application, AAH 320 g/ha, evaluated three weeks after application
Outline: as §3

persian speedwell [25] = test: Test Example 5: herbicidal effect by foliage application, plastic box (Table 20, symbol R); format: in vivo, Persian speedwell (Veronica persica); conditions: foliage application, AAH 320 g/ha, evaluated three weeks after application
Outline: as §3

Cc1nn(C)c(=O)c(-c2c(-c3ccc(OC(F)F)cc3)sc3ccc(F)cc23)c1OC(=O)N(C)C [2-291]
herbicidal effect on H: barnyard grass (barnyard grass [1]): 4 (Herbicidal rate of 70% or more and less than 90%)
herbicidal effect on D: Chinese sprangletop (Chinese sprangletop): 3 (Herbicidal rate of 40% or more and less than 70%)
herbicidal effect on E: rice flat sedge (rice flat sedge): 2 (Herbicidal rate of 20% or more and less than 40%)
herbicidal effect on F: southern crabgrass (southern crabgrass [2]): 0 (Herbicidal rate of 5% or less (almost no effect))
herbicidal effect on G: green foxtail (green foxtail [3]): 0 (Herbicidal rate of 5% or less (almost no effect))
herbicidal effect on H: barnyard grass (barnyard grass [4]): 0 (Herbicidal rate of 5% or less (almost no effect))
herbicidal effect on I: wild oat (wild oat [5]): 0 (Herbicidal rate of 5% or less (almost no effect))
herbicidal effect on J: blackgrass (blackgrass [6]): 0 (Herbicidal rate of 5% or less (almost no effect))
herbicidal effect on K: Italian ryegrass (Italian ryegrass [7]): 0 (Herbicidal rate of 5% or less (almost no effect))
herbicidal effect on L: windgrass (windgrass [8]): 0 (Herbicidal rate of 5% or less (almost no effect))
herbicidal effect on M: velvetleaf (velvetleaf [9]): 0 (Herbicidal rate of 5% or less (almost no effect))
herbicidal effect on N: redroot pigweed (redroot pigweed [10]): 3 (Herbicidal rate of 40% or more and less than 70%)
herbicidal effect on O: lambsquarters (lambsquarters [11]): 3 (Herbicidal rate of 40% or more and less than 70%)
herbicidal effect on P: chickweed (chickweed [12]): 4 (Herbicidal rate of 70% or more and less than 90%)
herbicidal effect on R: persian speedwell (persian speedwell [13]): 3 (Herbicidal rate of 40% or more and less than 70%)
F: southern crabgrass, herbicidal effect (criteria 0-5) (southern crabgrass [14]): 0 (Herbicidal rate of 5% or less (almost no effect))
G: green foxtail, herbicidal effect (criteria 0-5) (green foxtail [15]): 4 (Herbicidal rate of 70% or more and less than 90%)
H: barnyard grass, herbicidal effect (criteria 0-5) (barnyard grass [16]): 0 (Herbicidal rate of 5% or less (almost no effect))
I: wild oat, herbicidal effect (criteria 0-5) (wild oat [17]): 0 (Herbicidal rate of 5% or less (almost no effect))
J: blackgrass, herbicidal effect (criteria 0-5) (blackgrass [18]): 3 (Herbicidal rate of 40% or more and less than 70%)
K: Italian ryegrass, herbicidal effect (criteria 0-5) (Italian ryegrass [19]): 3 (Herbicidal rate of 40% or more and less than 70%)
L: windgrass, herbicidal effect (criteria 0-5) (windgrass [20]): 0 (Herbicidal rate of 5% or less (almost no effect))
M: velvetleaf, herbicidal effect (criteria 0-5) (velvetleaf [21]): 2 (Herbicidal rate of 20% or more and less than 40%)
N: redroot pigweed, herbicidal effect (criteria 0-5) (redroot pigweed [22]): 5 (Herbicidal rate of 90% or more (almost completely withered))
O: lambsquarters, herbicidal effect (criteria 0-5) (lambsquarters [23]): 5 (Herbicidal rate of 90% or more (almost completely withered))
P: chickweed, herbicidal effect (criteria 0-5) (chickweed [24]): 5 (Herbicidal rate of 90% or more (almost completely withered))
R: persian speedwell, herbicidal effect (criteria 0-5) (persian speedwell [25]): 5 (Herbicidal rate of 90% or more (almost completely withered))
